Among the test systems are SW-620; HOP-92; HOP-62; SF-268; SK-MEL-28; SK-MEL-5; HCT-116; NCI-H460; SN12C; NCI/ADR-RES; MOLT-4; HCT-15; SF-539; RXF 393; U-251; TK-10; CCRF-CEM; MDA-MB-435; EKVX; Malme-3M.
What all share (assay): growth of human tumour cells (NCI), 48 h

The structures appear in SMILES notation.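 Grown in 96-well plates, cells were treated for 48 hours with each compound at five concentrations. Insufficient inhibition: endpoint recorded as highest concentration tested. GI50 = concentration required for 50% inhibition of growth.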 Active and inactive are the calls of the source. Rule as the data show it: active = GI50 up to about 1.1 µM and inactive = higher.

With `O=C(CC(C(=O)c1ccoc1)c1ccco1)c1ccco1` (stereo not drawn), the GI50 with SW-620 was > 100 µM (inactive); in the assay with HOP-92, > 100 µM (inactive); in the assay on HOP-62, > 100 µM (inactive); in the assay on SF-268 it was > 100 µM (inactive); with SK-MEL-28, 37.9 µM (inactive); in the assay on SK-MEL-5, > 100 µM (inactive). Further, the GI50 is > 100 µM (inactive) with HCT-116; > 100 µM (inactive) with NCI-H460; > 100 µM (inactive) in the assay on SN12C; 80.5 µM (inactive) in the assay with NCI/ADR-RES; > 100 µM (inactive) in the assay with MOLT-4; over 100 µM with HCT-15. Besides, the GI50 in the assay with SF-539 was > 100 µM (inactive); in the assay on RXF 393, > 100 µM (inactive); in the assay on U-251 it was > 100 µM (inactive); in the assay on TK-10, > 100 µM (inactive); in the assay on CCRF-CEM, 24.2 µM (inactive); in the assay with MDA-MB-435, 30 µM (inactive). In addition, the GI50 with EKVX is > 100 µM (inactive).

Consider `CSC12c3cc(C)n(-c4ccccc4)c3CC(C)(C)CN1C(=O)C2Oc1ccccc1` (stereo not drawn), for which the GI50 in the assay with SW-620 is 40.1 µM (inactive); in the assay with HOP-92, 7.66 µM (inactive); in the assay on HOP-62, > 100 µM (inactive); in the assay with SK-MEL-28 it was 62.7 µM (inactive); in the assay on SK-MEL-5, 22.4 µM (inactive); with HCT-116, 12.1 µM (inactive). Moreover, the GI50 was 29.1 µM (inactive) with NCI-H460; > 100 µM (inactive) in the assay on SN12C; 62.4 µM (inactive) in the assay on NCI/ADR-RES; 10.2 µM (inactive) in the assay on MOLT-4; 28.1 µM with HCT-15; > 100 µM (inactive) in the assay with SF-539. The GI50 is > 100 µM (inactive) with RXF 393; 93.5 µM (inactive) in the assay with U-251; 16.6 µM (inactive) in the assay on CCRF-CEM; > 100 µM (inactive) in the assay on MDA-MB-435; 26.5 µM (inactive) in the assay on EKVX.

For `Cc1ccc(-c2cnc(NC3OC(COC(=O)c4ccccc4)C(OC(=O)c4ccccc4)C(OC(=O)c4ccccc4)C3OC(=O)c3ccccc3)s2)cc1` (stereo not drawn), the GI50 with SW-620 is > 100 µM (inactive); in the assay with HOP-92, 20.4 µM (inactive); with HOP-62, > 100 µM (inactive); with SF-268, > 100 µM (inactive); in the assay with SK-MEL-28, > 100 µM (inactive); in the assay on Malme-3M, > 100 µM (inactive). Besides, the GI50 with SK-MEL-5, in the assay with HCT-116, with NCI-H460, in the assay on SN12C, with NCI/ADR-RES and in the assay with MOLT-4 was > 100 µM (inactive) each time. Further, the GI50 is over 100 µM in the assay with HCT-15; > 100 µM (inactive) in the assay on RXF 393; > 100 µM (inactive) with U-251; > 100 µM (inactive) in the assay with TK-10; > 100 µM (inactive) with MDA-MB-435; > 100 µM (inactive) with EKVX.

For the compound `NC(=O)C(NC=O)c1ccccc1` (stereo not drawn), the GI50 in the assay with SW-620, in the assay with HOP-92, in the assay on HOP-62, in the assay on SF-268, with SK-MEL-28 and in the assay with SK-MEL-5 was > 100 µM (inactive) each time. In addition, the GI50 with HCT-116 was > 100 µM (inactive); in the assay on NCI-H460 it was > 100 µM (inactive); with SN12C it was > 100 µM (inactive); in the assay on NCI/ADR-RES it was > 100 µM (inactive); in the assay with MOLT-4, > 100 µM (inactive); in the assay on HCT-15, over 100 µM. In addition, the GI50 in the assay with SF-539, in the assay on RXF 393, in the assay with U-251, with TK-10, in the assay with CCRF-CEM and in the assay with MDA-MB-435 was > 100 µM (inactive) throughout. For the same compound, the GI50 in the assay on EKVX was > 100 µM (inactive).

For `O=[As](O)(O)c1ccc(/N=N/c2ccc([As](=O)(O)O)cc2)cc1`, the GI50 in the assay on SW-620, in the assay on HOP-92, in the assay with HOP-62, with SF-268, in the assay on SK-MEL-28 and with Malme-3M was > 100 µM (inactive) each time. Further, the GI50 with SK-MEL-5, with HCT-116, in the assay on NCI-H460, with SN12C, with NCI/ADR-RES and in the assay on MOLT-4 was > 100 µM (inactive) each time. For the same compound, the GI50 in the assay on HCT-15 is over 100 µM; in the assay on RXF 393, > 100 µM (inactive); in the assay on U-251 it was > 100 µM (inactive); in the assay with TK-10, > 100 µM (inactive); in the assay on MDA-MB-435 it was > 100 µM (inactive); in the assay on EKVX it was > 100 µM (inactive).

With `C=C1[C@H](OCC(C)C)[C@@H](OCC(C)C)[C@@H](O)C(C)(C)/C=C/[C@H](C)C(=O)[C@@]2(O)C[C@H](C)[C@H](O)[C@@H]2[C@H]1OCC(C)C`, the GI50 is 7.38 µM (inactive) in the assay on SW-620; > 7.5 µM (inactive) in the assay on HOP-92; 1.16 µM (inactive) with HOP-62; 6.24 µM (inactive) with SF-268; 7.18 µM (inactive) in the assay with SK-MEL-5; > 7.5 µM (inactive) in the assay with HCT-116. Also, the GI50 in the assay on NCI-H460 was 0.555 µM (active); in the assay with SN12C, > 7.5 µM (inactive); in the assay with NCI/ADR-RES, > 7.5 µM (inactive); with MOLT-4, 0.676 µM (active); in the assay with HCT-15, 6.92 µM; in the assay on SF-539, 2.83 µM (inactive). For the same compound, the GI50 in the assay on RXF 393 was > 7.5 µM (inactive); with U-251, > 7.5 µM (inactive); in the assay on TK-10, 5.78 µM (inactive); in the assay on MDA-MB-435, 3.01 µM (inactive).

With `COc1ccc(C2NC(=S)Nc3c2c(=O)oc2c3ccc3ccccc32)cc1` (stereo not drawn), the GI50 in the assay on SW-620 was > 100 µM (inactive); in the assay with HOP-92, 41.8 µM (inactive); in the assay with HOP-62 it was 87.9 µM (inactive); in the assay with SF-268, > 100 µM (inactive); in the assay on SK-MEL-28, 52.5 µM (inactive); with Malme-3M it was > 100 µM (inactive). Besides, the GI50 is > 100 µM (inactive) in the assay with SK-MEL-5; 78.2 µM (inactive) with HCT-116; 96.6 µM (inactive) in the assay on NCI-H460; 88.5 µM (inactive) in the assay with SN12C; 81.5 µM (inactive) with NCI/ADR-RES; 73.5 µM (inactive) in the assay with MOLT-4. Moreover, the GI50 with HCT-15 was 53.7 µM; in the assay on RXF 393 it was > 100 µM (inactive); in the assay with U-251, 40.6 µM (inactive); in the assay on TK-10, 99.3 µM (inactive); in the assay with CCRF-CEM it was 46 µM (inactive); with MDA-MB-435, 86.3 µM (inactive). Moreover, the GI50 in the assay with EKVX was 27.4 µM (inactive).

`CC1(C)C(=O)N(O)C(C)(C)N1N=O`: the GI50 in the assay with SW-620, in the assay on HOP-92, with HOP-62, with SF-268, with Malme-3M and in the assay with HCT-116 was > 10 µM (inactive) in each case. The GI50 with NCI-H460 is > 10 µM (inactive); in the assay on SN12C it was > 10 µM (inactive); in the assay with NCI/ADR-RES, > 10 µM (inactive); with MOLT-4 it was > 10 µM (inactive); in the assay on HCT-15, over 10 µM; in the assay with RXF 393, > 10 µM (inactive). For the same compound, the GI50 in the assay on U-251, in the assay on TK-10, in the assay with CCRF-CEM, in the assay with MDA-MB-435 and in the assay with EKVX was > 10 µM (inactive) in each case.

Regarding `O=C(n1c(=O)n(-c2ccc(Cl)cc2)c(=O)n1C(=O)C(Cl)(Cl)Cl)C(Cl)(Cl)Cl`, the GI50 with SW-620 is > 100 µM (inactive); with HOP-92, > 100 µM (inactive); with HOP-62, > 100 µM (inactive); in the assay with SF-268 it was 50 µM (inactive); with SK-MEL-28, > 100 µM (inactive); with Malme-3M, > 100 µM (inactive). In addition, the GI50 is > 100 µM (inactive) in the assay on SK-MEL-5; > 100 µM (inactive) with HCT-116; > 100 µM (inactive) with NCI-H460; > 100 µM (inactive) in the assay with SN12C; 43.5 µM (inactive) in the assay on NCI/ADR-RES; > 100 µM (inactive) in the assay on MOLT-4. Also, the GI50 is over 10 µM in the assay with HCT-15; > 100 µM (inactive) in the assay on SF-539; > 100 µM (inactive) with U-251; > 100 µM (inactive) in the assay with TK-10; > 100 µM (inactive) in the assay with CCRF-CEM; 31.6 µM (inactive) in the assay on MDA-MB-435. For the same compound, in the assay on EKVX, the GI50 was > 100 µM (inactive).

Take `O=C1N/N=C\Nc2ccc(cc2)S(=O)(=O)c2ccc(cc2)/N=C\NNC1=O`: the GI50 in the assay with SW-620, in the assay on HOP-92, in the assay with HOP-62, with SF-268, with SK-MEL-28 and with SK-MEL-5 was > 100 µM (inactive) each time. Besides, the GI50 was > 100 µM (inactive) in the assay on HCT-116; > 100 µM (inactive) with NCI-H460; > 100 µM (inactive) with SN12C; > 100 µM (inactive) in the assay with NCI/ADR-RES; > 100 µM (inactive) in the assay with MOLT-4; over 100 µM in the assay with HCT-15. The GI50 in the assay on SF-539, with RXF 393, in the assay on U-251, in the assay with TK-10, in the assay on MDA-MB-435 and in the assay on EKVX was > 100 µM (inactive) each time.

For the compound `COc1ccc(C2CC(c3cc4c(C)c(C(=O)c5ccccc5)oc4cc3O)=Nc3ccccc3S2)cc1OC` (stereo not drawn), the GI50 is > 84.7 µM (inactive) in the assay on SW-620; 20.3 µM (inactive) with HOP-92; > 42.7 µM (inactive) in the assay on SF-268; > 100 µM (inactive) with SK-MEL-28; 25.8 µM (inactive) with Malme-3M; > 56.5 µM (inactive) with SK-MEL-5. For the same compound, the GI50 in the assay with HCT-116 is > 90.4 µM (inactive); with NCI-H460, > 100 µM (inactive); in the assay on SN12C, > 100 µM (inactive); in the assay with NCI/ADR-RES, > 58.1 µM (inactive); in the assay on MOLT-4, > 100 µM (inactive); in the assay on HCT-15, over 73.1 µM. The GI50 with SF-539 was > 50 µM (inactive); in the assay with U-251 it was > 65 µM (inactive); in the assay on TK-10 it was > 77.1 µM (inactive); in the assay on CCRF-CEM, 70.8 µM (inactive); with MDA-MB-435, 0.733 µM (active); in the assay on EKVX, 28.2 µM (inactive).

(Values after ChEMBL document CHEMBL1201862, “PubChem BioAssay data set” (2004).)
